This note sets out measurements from patent publication US20230012368A1 (Hoffmann-La Roche Inc., priority 2018, published 2023).

A word on the IC90: it is the concentration needed for an effect of 90%.

Counter-ions that a name gives are not always drawn.

In the test the test system is Acinetobacter baumannii ATCC 17978. The test can be described thus: Antimicrobial susceptibility testing: 90% growth inhibitory concentration (IC90) determination. Type of test: cell-based. Conditions: Acinetobacter baumannii, ATCC17978, 16 h, 90% growth inhibitory concentration; Acinetobacter baumannii ATCC17978; Iso-Sensitest broth, OD 600 nm over 16h; read-out: ATCC17978 IC90. In outline: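 Compounds serially twofold diluted (e.g. 50 to 0.097 μM final) in Iso-Sensitest broth, inoculated at ~5×10^(5) CFU/ml, incubated at 35±2° C. OD600 read every 20 minutes over 16h. IC90 taken as concentration inhibiting 90% of growth during logarithmic phase.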
For the compound `COc1ccc(-c2cnc3c(Nc4ccc(C(=O)N(C)CC5CCNCC5)c(Cl)c4)nccn23)cc1F` [Example 205, 2-chloro-4-[[3-(3-fluoro-4-methoxyphenyl)imidazo[1,2-a]pyrazin-8-yl]amino]-N-methyl-N-(piperidin-4-ylmethyl)benzamide;hydrochlo-ride], the IC90 is 0.53 µM.

Take `COc1ccc(-c2cnc3c(Nc4ccc(C(=O)NCC5OCC(N)CO5)c(C)c4)nccn23)cc1` (stereo not drawn) [Example 206, N-[(5-amino-1,3-dioxan-2-yl)methyl]-4-[[3-(4-methoxyphenyl)imidazo[1,2-a]pyrazin-8-yl]amino]-2-methylbenzamide]: the IC90 was 0.54 µM.

`COc1ccc(-c2cnc3c(Nc4ccc(C(=O)N(C)CCCC(=O)N5CCNCC5)c(C)c4)nccn23)cc1F` [Example 207, 4-[[3-(3-fluoro-4-methoxyphenyl)imidazo[1,2-a]pyrazin-8-yl]amino]-N,2-dimethyl-N-(4-oxo-4-piperazin-1-ylbutyl)benzamide;hydrochlo-ride]: the IC90 worked out at 0.56 µM.

`Cc1cc(Nc2nccn3c(-c4ccc(OC(F)F)cc4)cnc23)ccc1C(=O)N(C)CCCCN1CCOCC1` [Example 208, 4-[[3-[4-(difluoromethoxy)phenyl]im-idazo[1,2-a]pyrazin-8-yl]amino]-N,2-dimethyl-N-(4-morpholin-4-ylbutyl)benzamide]: the IC90 was determined as 0.58 µM.

Take `Cc1cc(Nc2nccn3c(-c4ccc(OC(F)F)cc4)cnc23)ccc1C(=O)NCCCN1CCOCC1` [Example 209, 4-[[3-[4-(difluoromethoxy)phenyl]im-idazo[1,2-a]pyrazin-8-yl]amino]-2-methyl-N-(3-morpholin-4-ylpropyl)benzamide]: the 90% effect concentration (IC90) was 0.59 µM.

`COc1ccc(-c2cnc3c(Nc4ccc(C(=O)N(C)CC5CCNCC5)c(C)c4)nccn23)cc1F` [Example 210, 4-[[3-(3-fluoro-4-methoxyphenyl)imidazo[1,2-a]pyrazin-8-yl]amino]-N,2-dimethyl-N-(piperidin-4-ylmethyl)benzamide;hydrochlo-ride]: the IC90 was determined as 0.63 µM.

As for `COc1ccc(-c2cnc3c(Nc4ccc(C(=O)NCC5CCNCC5)c(C)c4)nccn23)cc1` [Example 211, 4-[[3-(4-methoxyphenyl)imidazo[1,2-a]pyrazin-8-yl]amino]-2-methyl-N-(piperidin-4-ylmethyl)benzamide;hydrochlo-ride], the IC90 was 0.64 µM.

As for `CCc1cc(Nc2nccn3c(-c4ccc(OC(F)F)cc4)cnc23)ccc1C(=O)NCCN1CCNCC1` [Example 212, 4-[[3-[4-(difluoromethoxy)phenyl]im-idazo[1,2-a]pyrazin-8-yl]amino]-2-ethyl-N-(2-piperazin-1-ylethyl)benzamide;hydrochlo-ride], the IC90 worked out at 0.64 µM.

`COc1ccc(-c2cnc3c(Nc4ccc(C(=O)NCC5CCNCC5)c(C)c4)nccn23)cc1F` [Example 213, 4-[[3-(3-fluoro-4-methoxyphenyl)imidazo[1,2-a]pyrazin-8-yl]amino]-2-methyl-N-(piperidin-4-ylmethyl)benzamide;hydrochlo-ride]: the concentration for an effect of 90% (IC90) was 0.66 µM.

`Cc1cc(Nc2nccn3c(-c4ccc(Cl)c(F)c4F)cnc23)ccc1C(=O)NCCCN` [Example 214, N-(3-aminopropyl)-4-[[3-(4-chloro-2,3-difluorophenyl)imidazo[1,2-a]pyrazin-8-yl]amino]-2-methylbenzamide;hydrochlo-ride]: the IC90 was found to be 0.69 µM.

`CCN(CC)C(=O)c1ccc(Nc2nccn3c(-c4ccc(OC)c(Cl)c4)cnc23)cc1` [Example 215, 4-[[3-(3-chloro-4-methoxyphenyl)imidazo[1,2-a]pyrazin-8-yl]amino]-N,N-diethylbenzamide]: the concentration for an effect of 90% (IC90) was determined as 0.68 µM.

As to `COc1ccc(-c2cnc3c(Nc4ccc(C(=O)NCCN5CCNC(=O)C5)c(C)c4)nccn23)cc1F` [Example 216, 4-[[3-(3-fluoro-4-methoxyphenyl)imidazo[1,2-a]pyrazin-8-yl]amino]-2-methyl-N-[2-(3-oxopiperazin-1-yl)ethyl]benzamide], the 90% effect concentration (IC90) is 0.77 µM.

Regarding `C=Cc1cc(Nc2nccn3c(-c4ccc(OC(F)F)cc4)cnc23)ccc1C(=O)N(C)CCN1CCNCC1` [Example 217, 4-[[3-[4-(difluoromethoxy)phenyl]im-idazo[1,2-a]pyrazin-8-yl]amino]-2-ethenyl-N-methyl-N-(2-piperazin-1-ylethyl)benzamide;hydrochlo-ride], the IC90 stood at 0.84 µM.

Regarding `Cc1cc(Nc2nccn3c(-c4ccc(OC(F)F)cc4)cnc23)ccc1C(=O)N(C)CCCN1CCNCC1` [Example 219, 4-[[3-[4-(difluoromethoxy)phenyl]im-idazo[1,2-a]pyrazin-8-yl]amino]-N,2-dimethyl-N-(3-piperazin-1-ylpropyl)benzamide;hydrochlo-ride], the 90% effect concentration (IC90) is 1 µM.

Regarding `CCN(CC)C(=O)c1ccc(Nc2nccn3c(-c4ccc(OC)cc4)cnc23)cc1C` [Example 220, N,N-diethyl-4-[[3-(4-methoxyphenyl)imidazo[1,2-a]pyrazin-8-yl]amino]-2-methylbenzamide], the 90% effect concentration (IC90) came to 1.2 µM.

As for `Cc1cc(Nc2nccn3c(-c4ccc(OC(F)F)cc4)cnc23)ccc1C(=O)NCCN1CCNC(=O)C1` [Example 221, 4-[[3-[4-(difluoromethoxy)phenyl]im-idazo[1,2-a]pyrazin-8-yl]amino]-2-methyl-N-[2-(3-oxopiperazin-1-yl)ethyl]benzamide], the concentration for an effect of 90% (IC90) was 1.1 µM.

Turning to `Cc1cc(Nc2nccn3c(-c4ccc(OC(F)F)cc4)cnc23)ccc1C(=O)NC(C)(C)CN1CCOCC1` [Example 222, 4-[[3-[4-(difluoromethoxy)phenyl]im-idazo[1,2-a]pyrazin-8-yl]amino]-2-methyl-N-(2-methyl-1-morpholin-4-ylpropan-2-yl)benzamide], the IC90 was 1.1 µM.

Consider `COc1ccc(-c2cnc3c(Nc4ccc(C(=O)NCCCCCNC(=O)OC(C)(C)C)c(C)c4)nccn23)cc1` [Example 223, tert-butyl N-[5-[[4-[[3-(4-methoxyphenyl)imidazo[1,2-a]pyrazin-8-yl]amino]-2-methylbenzoyl]amino]pentyl] carbamate], for which the 90% effect concentration (IC90) came out at 1.1 µM.

Turning to `CCc1cc(Nc2nccn3c(-c4ccc(OC(F)F)cc4)cnc23)ccc1C(=O)N(C)CCN1CCNCC1` [Example 224, 4-[[3-[4-(difluoromethoxy)phenyl]im-idazo[1,2-a]pyrazin-8-yl]amino]-2-ethyl-N-methyl-N-(2-piperazin-1-ylethyl)benzamide;hydrochlo-ride], the 90% effect concentration (IC90) worked out at 1.1 µM.

Consider `CNC(=O)c1ccc(Nc2nccn3c(-c4ccc(OC(F)F)cc4)cnc23)cc1CO` [Example 225, 4-[[3-[4-(difluoromethoxy)phenyl]im-idazo[1,2-a]pyrazin-8-yl]amino]-2-(hydroxymethyl)-N-methylbenzamide], for which the 90% effect concentration (IC90) was found to be 1.1 µM.

`COC(=O)[C@@H](N)CCCCNC(=O)c1ccc(Nc2nccn3c(-c4ccc(OC(F)F)cc4)cnc23)cc1C` [Example 226, methyl (2S)-2-amino-6-[[4-[[3-[4-(difluoromethoxy)phenyl]im-idazo[1,2-a]pyrazin-8-yl]amino]-2-methylbenzoyl]amino]hexa-noate;hydrochloride]: the concentration for an effect of 90% (IC90) was 1.1 µM.

On to `CCN(CC)C(=O)c1ccc(Nc2nccn3c(-c4ccc(OC)cc4)cnc23)cc1` [Example 227, N,N-diethyl-4-[[3-(4-methoxyphenyl)imidazo[1,2-a]pyrazin-8-yl]amino]benzamide], for which the IC90 was found to be 0.61 µM.

With `Cc1cc(Nc2nccn3c(-c4ccc(Cl)c(F)c4F)cnc23)ccc1C(=O)N(C)CCCN` [Example 228, N-(3-aminopropyl)-4-[[3-(4-chloro-2,3-difluorophenyl)imidazo[1,2-a]pyrazin-8-yl]amino]-N,2-dimethylbenzamide;hydrochlo-ride], the IC90 is 1.2 µM.

Take `CCc1cc(Nc2nccn3c(-c4ccc(Cl)c(F)c4F)cnc23)ccc1C(=O)NCCCN` [Example 229, N-(3-aminopropyl)-4-[[3-(4-chloro-2,3-difluorophenyl)imidazo[1,2-a]pyrazin-8-yl]amino]-2-ethylbenzamide;hydrochloride]: the IC90 came out at 1.2 µM.

Regarding `Cc1cc(Nc2nccn3c(-c4ccc(OC(F)F)cc4)cnc23)ccc1C(=O)NCCN1CCOCC1` [Example 230, 4-[[3-[4-(difluoromethoxy)phenyl]im-idazo[1,2-a]pyrazin-8-yl]amino]-2-methyl-N-(2-morpholin-4-ylethyl)benzamide], the IC90 was 1.2 µM.

Take `COc1ccc(-c2cnc3c(Nc4ccc(C(=O)N(C)C)cc4)nccn23)cc1` [Example 231, 4-[[3-(4-methoxyphenyl)imidazo[1,2-a]pyrazin-8-yl]amino]-N,N-dimethylbenzamide]: the IC90 stood at 0.4 µM.

Take `COc1ccc(-c2cnc3c(Nc4ccc(C(=O)NCC5CNCCO5)c(C)c4)nccn23)cc1F` (stereo not drawn) [Example 232, 4-[[3-(3-fluoro-4-methoxyphenyl)imidazo[1,2-a]pyrazin-8-yl]amino]-2-methyl-N-(morpholin-2-ylmethyl)benzamide; hydrochlo-ride]: the 90% effect concentration (IC90) is 1.3 µM.

As for `COc1ccc(-c2cnc3c(Nc4ccc(C(=O)NCC5CNCCO5)c(Cl)c4)nccn23)cc1F` (stereo not drawn) [Example 233, 2-chloro-4-[[3-(3-fluoro-4-methoxyphenyl)imidazo[1,2-a]pyrazin-8-yl]amino]-N-(morpholin-2-ylmethyl)benzamide; hydrochlo-ride], the IC90 stood at 1.3 µM.

On to `Cc1cc(Nc2nccn3c(-c4ccc(OC(F)F)cc4)cnc23)ccc1C(=O)N(C)CCC1CCN(S(C)(=O)=O)CC1` [Example 234, 4-[[3-[4-(difluoromethoxy)phenyl]im-idazo[1,2-a]pyrazin-8-yl]amino]-N,2-dimethyl-N-[2-(1-methylsulfonylpiperidin-4-yl)ethyl]benzamide], for which the IC90 is 1.3 µM.

In the case of `COc1ccc(-c2cnc3c(Nc4ccc(C(=O)N(C)CCO)cc4)nccn23)cc1` [Example 235, N-(2-hydroxyethyl)-4-[[3-(4-methoxyphenyl)imidazo[1,2-a]pyrazin-8-yl]amino]-N-methylbenzamide], the IC90 turned out to be 1 µM.
